One may read the melting point as the temperature of the solid-liquid transition.

Compound `COc1cccc(/C=N/c2ccccc2NC(=O)Nc2ccc(C(C)=O)cc2)c1O` [Compound 3v, (E)-1-(4-acetylphenyl)-3-(2-((2-hydroxy-3-methoxybenzylidene)amino)phenyl) urea] came in with a melting point of 200 to 212 °C.
With `CCOc1cccc(/C=N/c2ccccc2NC(=O)Nc2ccccc2C)c1O` [Compound 3g, (E)-1-(2-((3-ethoxy-2-hydroxybenzylidene)amino)phenyl)-3-(o-tolyl) urea], the melting point is 216 to 218 °C.
Next, `COc1cc(/C=N/c2ccccc2NC(=O)Nc2ccc(Cl)cc2)ccc1O` [Compound 3w, (E)-1-(4-chlorophenyl)-3-(2-((4-hydroxy-3-methoxybenzylidene)amino)phenyl) urea]: 219 to 221 °C.
With `COc1cccc(/C=N/c2ccccc2NC(=O)Nc2cccc(Cl)c2)c1O` [Compound 3l, (E)-1-(3-chlorophenyl)-3-(2-((2-hydroxy-3-methoxybenzylidene)amino)phenyl) urea] the figure was 208 to 210 °C; with `COc1cccc(/C=N/c2ccccc2NC(=O)Nc2cccc(F)c2)c1O` [Compound 3n, (E)-1-(3-fluorophenyl)-3-(2-((2-hydroxy-3-methoxybenzylidene)amino)phenyl) urea], 200 to 201 °C.
Next, `COc1cccc(/C=N/c2ccccc2NC(=O)Nc2cccc(C)c2)c1O` [Compound 3s, (E)-1-(2-((2-hydroxy-3-methoxybenzylidene)amino)phenyl)-3-(m-tolyl) urea]: 201 to 203 °C.
For `CCOc1cccc(/C=N/c2ccccc2NC(=O)Nc2ccc3ccccc3c2)c1O` [Compound 3d, (E)-1-(2-((3-ethoxy-2-hydroxybenzylidene)amino)phenyl)-3-(naphthalen-2-yl) urea], the melting point is 228 to 230 °C.
Compound `CCOc1cccc(/C=N/c2ccccc2NC(=O)Nc2ccc(F)cc2)c1O` [Compound 3b, (E)-1-(2-((3-ethoxy-2-hydroxybenzylidene)amino)phenyl)-3-(4-fluorophenyl) urea] yielded a melting point of 217 to 219 °C.
`CCOc1cccc(/C=N/c2ccccc2NC(=O)Nc2ccc(C)cc2)c1O` [Compound 3i, (E)-1-(2-((3-ethoxy-2-hydroxybenzylidene)amino)phenyl)-3-(p-tolyl)urea]: the melting point lay within 210 to 212 °C.
With `COc1cc(/C=N/c2ccccc2NC(=O)Nc2ccccc2C)ccc1O` [Compound 3x, (E)-1-(2-((4-hydroxy-3-methoxybenzylidene)amino)phenyl)-3-(o-tolyl) urea] the figure was 200 to 202 °C.
In turn, `CCOc1cccc(/C=N/c2ccccc2NC(=O)Nc2cccc(C)c2)c1O` [Compound 3h, (E)-1-(2-((3-ethoxy-2-hydroxybenzylidene)amino)phenyl)-3-(m-tolyl) urea] registered a melting point of 203 to 205 °C.
With `COc1cccc(/C=N/c2ccccc2NC(=O)Nc2ccc3ccccc3c2)c1O` [Compound 3o, (E)-1-(2-((2-hydroxy-3-methoxybenzylidene)amino)phenyl)-3-(naphthalen-2-yl) urea] the figure was 214 to 216 °C; with `CCOc1cccc(/C=N/c2ccccc2NC(=O)Nc2ccc(Cl)cc2)c1O` [Compound 3f, (E)-1-(4-chlorophenyl)-3-(2-((3-ethoxy-2-hydroxybenzylidene)amino)phenyl) urea], 218 to 220 °C.
With `CCOc1cccc(/C=N/c2ccccc2NC(=O)Nc2cccc(Cl)c2)c1O` [Compound 3a, (E)-1-(3-chlorophenyl)-3-(2-((3-ethoxy-2-hydroxybenzylidene)amino)phenyl) urea] the figure was 218 to 220 °C.
Next, `CCOc1cccc(/C=N/c2ccccc2NC(=O)Nc2ccc(OC)cc2)c1O` [Compound 3e, (E)-1-(2-((3-ethoxy-2-hydroxybenzylidene)amino)phenyl)-3-(4-methoxyphenyl) urea]: 204 to 206 °C.
`COc1cccc(/C=N/c2ccccc2NC(=O)Nc2ccc(Cl)cc2)c1O` [Compound 3q, (E)-1-(4-chlorophenyl)-3-(2-((2-hydroxy-3-methoxybenzylidene)amino)phenyl) urea] returned a melting point of 218 to 220 °C.
With `COc1cccc(/C=N/c2ccccc2NC(=O)Nc2ccccc2)c1O` [Compound 3u, (E)-1-(2-((2-hydroxy-3-methoxybenzylidene)amino)phenyl)-3-phenylurea] the figure was 188 to 190 °C.

Values taken from paper PMC9892044, “Synthesis of new diphenyl urea-clubbed imine analogs and its Implications in diabetic management through in vitro and in silico approaches” (Scientific Reports, 2023).
